This experiment has as its target Serine/threonine-protein kinase/endoribonuclease IRE1 (Homo sapiens, UniProt O75460). Kind of experiment: Inhibition Assay: A fusion protein comprising glutathione S transferase (GST) and human IRE-1alpha (GST-IRE-1alpha) obtained from a 500 ml baculovirus-infected insect cell culture can be used to measure IRE-1alpha activity in vitro. Five ul of a reaction mixture comprising IX reaction buffer (5x reaction buffer is 100 mM Hepes pH 7.5, 250 mM KOAc, 2.5 mM MgCl2), 3 mM DTT, and 0.4% polyethylene glycol water is added to each well of 384 well plates. Twenty-five nanoliters of a 1 mM test compound solution are added to test wells. Three ul of a 128 ng/ml IRE-1alpha preparation are added to each test well and to positive control wells (final concentration 5.82 ng/well). Negative control wells contain only reaction mixture and test compound.After spinning the plates at 1200 rpm for 30 seconds, 3 ul of an IRE-1alpha human mini-XBP-1 mRNA stem-loop substrate 5'-[…]-3' (SEQ ID NO:1), labeled with the fluorescent dye Cy5 at the 5' end and Black Hole Quencher 2.

Chain of Serine/threonine-protein kinase/endoribonuclease IRE1 (O75460 whole entry, the tested form may be a part): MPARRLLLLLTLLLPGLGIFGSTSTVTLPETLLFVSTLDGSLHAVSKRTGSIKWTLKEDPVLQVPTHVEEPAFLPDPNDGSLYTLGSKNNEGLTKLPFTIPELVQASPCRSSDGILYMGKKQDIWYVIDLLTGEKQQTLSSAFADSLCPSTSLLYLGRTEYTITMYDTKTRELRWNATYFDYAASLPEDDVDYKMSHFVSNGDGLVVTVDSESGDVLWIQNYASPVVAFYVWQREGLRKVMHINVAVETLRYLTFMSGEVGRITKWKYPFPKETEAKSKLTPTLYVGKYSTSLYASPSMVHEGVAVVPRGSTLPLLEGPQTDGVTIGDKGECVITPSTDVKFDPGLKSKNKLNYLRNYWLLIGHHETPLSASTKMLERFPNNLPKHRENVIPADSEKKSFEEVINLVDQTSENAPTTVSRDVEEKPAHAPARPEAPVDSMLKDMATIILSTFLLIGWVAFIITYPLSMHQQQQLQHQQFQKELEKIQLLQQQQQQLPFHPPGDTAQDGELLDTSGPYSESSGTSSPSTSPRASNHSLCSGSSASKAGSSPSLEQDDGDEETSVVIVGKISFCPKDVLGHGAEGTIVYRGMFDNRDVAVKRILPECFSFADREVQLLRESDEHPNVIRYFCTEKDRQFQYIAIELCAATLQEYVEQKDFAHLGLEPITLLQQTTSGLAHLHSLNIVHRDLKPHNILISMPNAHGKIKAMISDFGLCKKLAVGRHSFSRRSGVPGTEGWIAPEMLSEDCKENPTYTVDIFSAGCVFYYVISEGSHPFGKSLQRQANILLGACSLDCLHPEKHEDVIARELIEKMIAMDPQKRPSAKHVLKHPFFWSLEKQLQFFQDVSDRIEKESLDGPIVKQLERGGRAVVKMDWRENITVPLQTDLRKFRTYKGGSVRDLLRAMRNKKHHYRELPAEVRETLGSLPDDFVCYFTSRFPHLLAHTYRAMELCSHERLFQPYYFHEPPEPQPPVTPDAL

For the compound `Cc1c(Br)c(=O)oc2c(C=O)c(O)ccc12`, the 50% inhibitory concentration (IC50) (in general, the concentration at which inhibition is half-maximal) is below 100 nM.
As for `O=Cc1c(O)ccc2cc(-c3ccc(Br)cc3)c(=O)oc12`, the IC50 was below 100 nM.
As to `Cc1c(-c2ccc(C(=O)N3CCN(C)CC3)cc2)c(=O)oc2c(C=O)c(O)ccc12`, the IC50 was below 100 nM.
Take `CCN(CC)CCc1c(C)c2ccc(O)c(C=O)c2oc1=O`: the IC50 was below 100 nM.
The value for `COc1cc2c(C)c(Br)c(=O)oc2c(C=O)c1O` was below 100 nM.
`Cc1c(Br)c(=O)oc2c(C=O)c(O)c(F)cc12`: the concentration for half-maximal inhibition (IC50) is below 1000 nM.
For `Cc1c(-c2cccc(C(=O)N3CCOCC3)c2)c(=O)oc2c(C=O)c(O)ccc12`, the IC50 was below 100 nM.
As for `Cc1c(Cc2ccccc2)c(=O)oc2c(C=O)c(O)c(O)cc12`, the IC50 is below 100 nM.
Take `Cc1c(-c2ccc(C(=O)N3CCCC3)cc2)c(=O)oc2c(C=O)c(O)ccc12`: the IC50 was below 1000 nM.
With `Cc1c(-c2ccc(C(=O)N3CCC(C)CC3)cc2)c(=O)oc2c(C=O)c(O)ccc12`, the half-maximal inhibitory concentration (IC50) is below 1000 nM.
The value for `Cc1c(-c2cccc(C(=O)N3CCCC3)c2)c(=O)oc2c(C=O)c(O)ccc12` was below 100 nM; that for `Cc1cc(=O)oc2c(C=O)c(O)c(F)cc12` was below 1000 nM; that for `COc1cc2c(C)c(-c3ccc(C(=O)N4CCOCC4)cc3)c(=O)oc2c(C=O)c1O` was below 1000 nM.
On to `CN1CCN(CCC(=O)N2CCc3c(ccc(O)c3C=O)C2)CC1`, for which the IC50 is above 10000 nM.
Turning to `Cc1nc(N2CCc3c(ccc(O)c3C=O)C2)sc1C(=O)N1CCOCC1`, the 50% inhibitory concentration (IC50) was below 10000 nM.
As for `O=Cc1c(O)ccc2nc(-c3cccc(C(=O)N4CCOCC4)c3)ccc12`, the 50% inhibitory concentration (IC50) was below 1000 nM.
As to `CC1CCN(C(=O)c2ccc(-c3ccc4c(C=O)c(O)ccc4n3)cc2)CC1`, the half-inhibitory concentration (IC50) was below 100 nM.
For the compound `O=Cc1c(O)ccc2nc(-c3ccc(C(=O)N4CCCC4)cc3)ccc12`, the IC50 was below 100 nM.
As to `O=Cc1c(O)ccc2nc(N3CCC(NC(=O)CN4CCOCC4)C3)ccc12` (stereo not given), the concentration for half-maximal inhibition (IC50) was below 100 nM.
The value for `CC(=O)NC1CCN(c2ccc3c(C=O)c(O)ccc3n2)C1` (stereo not given) was below 100 nM; that for `CN1CCN(C2CCN(c3nc4ccc(O)c(C=O)c4s3)C2)CC1` (stereo not given) was below 100 nM; that for `CC(C)N1CCN(c2nc3ccc(O)c(C=O)c3s2)CC1` was below 100 nM.
For the compound `CN1CCN(C(=O)c2ccc(-c3nc4ccc(O)c(C=O)c4s3)s2)CC1`, the IC50 is below 100 nM.
As for `CC1CCN(C(=O)c2ccc(-c3nc4ccc(O)c(C=O)c4s3)cc2)CC1`, the half-inhibitory concentration (IC50) is below 100 nM.
For the compound `O=Cc1c(O)ccc2nc(-c3ccc(C(=O)O)cc3)[nH]c12`, the IC50 is below 1000 nM.
For `COC(=O)c1ccc(-c2nc3ccc(O)c(C=O)c3[nH]2)cc1`, the IC50 was below 1000 nM.
For the compound `O=Cc1c(O)ccc2nc(-c3ccc(C(=O)NCCN4CCOCC4)cc3)[nH]c12`, the half-maximal inhibitory concentration (IC50) was below 100 nM.
In the case of `O=Cc1c(O)ccc2nc(-c3ccc(C(=O)N4CCOCC4)cc3)[nH]c12`, the IC50 is below 100 nM.
As for `CN1CCN(C(=O)c2ccc(-c3nc4ccc(O)c(C=O)c4[nH]3)cc2)CC1`, the half-inhibitory concentration (IC50) was below 100 nM.
The value for `Cc1c(CCC(=O)N2CCOCC2)c(=O)oc2c(C=O)c(O)ccc12` was below 100 nM.

For the origin of these results see ChEMBL document CHEMBL3639376, “IRE-1Œ± inhibitors” (2015).
